Values of other authors, collected in patent US6829374B2, “Methods for measuring iris color over time” (Glaucoma Research, Inc., priority 2001, dated 2004).

System: iris color
Details: ocular medication, recent studies

change in iris color	SMILES
change in iris color	CC(C)OC(=O)CCC/C=C\C[C@@H]1[C@@H](CC[C@@H](O)CCc2ccccc2)[C@H](O)C[C@@H]1O [latanoprost]
change in iris color	CCCCCCCC(=O)CC[C@@H]1[C@@H](C/C=C\CCCC(=O)O)[C@@H](O)C[C@H]1O [unoprostone]
